Data: patent publication US20240408093A1, “HETEROBIFUNCTIONAL COMPOUNDS AND THEIR USE IN TREATING DISEASE” (HALDA THERAPEUTICS OPCO, INC., priority 2022, published 2024)
Like-named read-outs stand apart in the source and are kept apart here.

Key:
[1] = target: T1, EGFR T790M/L858R kinase domain (Homo sapiens, UniProt P00533, L858R/T790M); test: EGFR cellular target engagement assay (HEK293 cells stable for EGFR T790M, L858R); type: cell-based; conditions: 6 hours, read-out: TE50 (the source's name)
T1 construct: EGFR (amino acids 696-1022, T790M, L858R); expressed in transfected cells; host or cells: HEK293, lentiviral transduction, puromycin selection
T1 sequence (P00533 696-1022 T790M/L858R): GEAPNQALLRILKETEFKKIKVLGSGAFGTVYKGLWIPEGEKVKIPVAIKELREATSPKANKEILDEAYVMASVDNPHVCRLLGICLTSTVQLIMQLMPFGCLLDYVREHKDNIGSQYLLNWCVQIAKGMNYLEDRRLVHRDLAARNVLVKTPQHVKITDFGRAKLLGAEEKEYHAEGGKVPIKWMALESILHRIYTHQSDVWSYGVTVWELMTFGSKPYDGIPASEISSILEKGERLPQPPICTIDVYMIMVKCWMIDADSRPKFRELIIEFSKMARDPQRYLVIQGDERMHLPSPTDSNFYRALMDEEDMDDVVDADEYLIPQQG
Protocol: HEK293 cells were cultured in DMEM (Gibco 11995), supplemented with 10% Heat-inactivated FBS (Gibco A38400-01) and 1% Penicillin/Streptomycin (Gibco 15140-122) at 37° C. with 5% CO2 in a humidified tissue culture incubator. Cells were made stable for EGFR (amino acids 696-1022, T790M, L858R) by lentiviral transduction, followed by selection with 1 μg/ml Puromycin Dihydrochloride (Thermo A1113803). Cells were seeded at 30,000 cells/ml in 0.1 ml of complete media in Poly-D-lysine-treated 96-well plates and incubated overnight. Cells were treated with increasing concentrations of compound and let incubate at 37C and 5% CO2 for 6 hours, after which media was aspirated, washed with 1×PBS and cells were lysed in RIPA Lysis and Extraction Buffer (Thermo 89901) supplemented with 5 mM MgCl2, Protease and Phosphatase inhibitor cocktail (Thermo 1861281), and Universal Nuclease (Thermo 88700). Plates with RIPA were shaken at 4° C. at 600 rpm for 15 min. After shaking samples, they were collected and spun down at 21,000 g for 15 min at 4° C. Following centrifugation, […] of lysate was added to Laemmli Sample Buffer (Bio-Rad 1610747) plus 10% beta-mercaptoethanol, boiled for 15 minutes at 65° C. and loaded onto 4-20% Mini-PROTEAN TGX™ Precast Protein Gels (Bio-Rad). Protein was transferred to a nitrocellulose membrane (Thermo LC2000) using the iBlot 2 Dry Blotting System (Thermo). After transfer, membranes were washed in 1× TBST (Bioland Scientific LLC TBST0103) 3× for 5 min. Following the wash, blocking buffer (Rockland MB-070) was added for 1 hour at room temperature. Primary antibodies against EGFR (Cell Signaling Technology 3197) and actin (Cell Signaling Technology 3700S) were added overnight at 4° C. Membranes were then washed again 3× for 5 min in 1× TBST. Secondary antibodies (LI-COR 926-68072 and 926-68073) were added and shaken for 1 hr at room temperature. Membranes were then washed 3× for 5 min in 1×TBST and developed. Membranes were placed on an Odyssey imager (LI-COR).

[2] = system: HeLa cells (ATCC CCL-2); test: Cellular growth inhibition assay, HeLa cells (Example 16); type: cell-based; conditions: Homo sapiens, 72 hours, CellTiter-Glo 2.0
Protocol: (§1) Exemplary compounds were tested for ability to inhibit the proliferation of HEK293 cells (ATCC CRL-1573) and HeLa cells (ATCC CCL-2).
(§2) HEK293 and HeLa cells were cultured in DMEM (Gibco 11995), supplemented with 10% Heat-inactivated FBS (Gibco A38400-01) and 1% Penicillin/Streptomycin (Gibco 15140-122) at 37° C. with 5% CO2 in a humidified tissue culture incubator. Cells were seeded at 500 cells/well in 384-well, Poly-D-lysine-treated blackplates (Perkin Elmer 6007710) in 25 μL media lacking selection for 18-24 hours. Plates were spun at 300 g for 30 seconds and stored in the incubator overnight. After 24 hours, a 25 μL aliquot of compound-containing medium was added in each well, at a final top concentration of 10 μM test compound, with 3-fold dilutions, using DMSO alone as a negative control. Plates were then spun at 300×g for 3 minutes again and cultured at 37° C. with 5% CO2. After 72 hours, cell viability was quantified with CellTiter-Glo 2.0 (Promega). After equilibrating cell plates at room temperature for 30 minutes, 25 μL CellTiter-Glo 2.0 reagent was dispensed into each well. Plates were mixed on a shaker for 2 minutes at 500 rpm, followed by a 10-minute incubation at room temperature. Luminescence readings were measured with an EnVision Plate Reader (Perkin Elmer). Data was normalized to DMSO treated cell wells. A four-parameter non-linear regression curve fit was applied to dose-response data in Prism to determine the half maximal growth inhibitory concentration (GI50) of each compound.

[3] = target: T2, GSPT1 (Homo sapiens, UniProt P15170+Q96SW2); test: GSPT1 HiBiT degradation assay; type: cell-based; conditions: HEK293 LgBiT GSPT1 HiBiT cells, 6 hours
T2 construct: host or cells: HEK293 LgBiT / GSPT1 HiBiT CRISPR knock-in
T2 sequence (P15170 whole entry): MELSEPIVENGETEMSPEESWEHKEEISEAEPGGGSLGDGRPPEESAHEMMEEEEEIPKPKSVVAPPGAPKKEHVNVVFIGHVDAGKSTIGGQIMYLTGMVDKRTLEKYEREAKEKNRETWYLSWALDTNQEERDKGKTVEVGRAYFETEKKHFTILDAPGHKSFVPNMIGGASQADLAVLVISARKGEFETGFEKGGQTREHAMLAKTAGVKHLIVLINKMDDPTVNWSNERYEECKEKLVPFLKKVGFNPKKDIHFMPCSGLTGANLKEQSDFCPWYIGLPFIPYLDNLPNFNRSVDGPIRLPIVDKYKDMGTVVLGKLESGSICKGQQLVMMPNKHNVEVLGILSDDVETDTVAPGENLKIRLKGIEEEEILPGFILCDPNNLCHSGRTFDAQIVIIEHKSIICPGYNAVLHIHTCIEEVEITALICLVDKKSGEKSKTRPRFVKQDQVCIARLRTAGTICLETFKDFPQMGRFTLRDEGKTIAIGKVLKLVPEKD
T2 sequence (Q96SW2 whole entry): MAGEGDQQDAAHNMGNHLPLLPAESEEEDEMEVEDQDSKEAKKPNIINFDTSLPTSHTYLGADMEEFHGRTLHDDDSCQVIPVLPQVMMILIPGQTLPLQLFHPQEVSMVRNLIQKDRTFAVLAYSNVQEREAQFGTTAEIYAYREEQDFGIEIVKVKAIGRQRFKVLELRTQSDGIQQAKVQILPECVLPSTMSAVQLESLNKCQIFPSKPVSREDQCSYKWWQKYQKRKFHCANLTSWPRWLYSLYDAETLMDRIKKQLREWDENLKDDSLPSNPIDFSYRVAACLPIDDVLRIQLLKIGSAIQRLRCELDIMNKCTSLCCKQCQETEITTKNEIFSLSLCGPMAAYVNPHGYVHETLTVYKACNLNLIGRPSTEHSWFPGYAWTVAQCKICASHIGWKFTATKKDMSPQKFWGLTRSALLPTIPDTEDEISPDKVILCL
T2 sequence (Q16531 whole entry partner): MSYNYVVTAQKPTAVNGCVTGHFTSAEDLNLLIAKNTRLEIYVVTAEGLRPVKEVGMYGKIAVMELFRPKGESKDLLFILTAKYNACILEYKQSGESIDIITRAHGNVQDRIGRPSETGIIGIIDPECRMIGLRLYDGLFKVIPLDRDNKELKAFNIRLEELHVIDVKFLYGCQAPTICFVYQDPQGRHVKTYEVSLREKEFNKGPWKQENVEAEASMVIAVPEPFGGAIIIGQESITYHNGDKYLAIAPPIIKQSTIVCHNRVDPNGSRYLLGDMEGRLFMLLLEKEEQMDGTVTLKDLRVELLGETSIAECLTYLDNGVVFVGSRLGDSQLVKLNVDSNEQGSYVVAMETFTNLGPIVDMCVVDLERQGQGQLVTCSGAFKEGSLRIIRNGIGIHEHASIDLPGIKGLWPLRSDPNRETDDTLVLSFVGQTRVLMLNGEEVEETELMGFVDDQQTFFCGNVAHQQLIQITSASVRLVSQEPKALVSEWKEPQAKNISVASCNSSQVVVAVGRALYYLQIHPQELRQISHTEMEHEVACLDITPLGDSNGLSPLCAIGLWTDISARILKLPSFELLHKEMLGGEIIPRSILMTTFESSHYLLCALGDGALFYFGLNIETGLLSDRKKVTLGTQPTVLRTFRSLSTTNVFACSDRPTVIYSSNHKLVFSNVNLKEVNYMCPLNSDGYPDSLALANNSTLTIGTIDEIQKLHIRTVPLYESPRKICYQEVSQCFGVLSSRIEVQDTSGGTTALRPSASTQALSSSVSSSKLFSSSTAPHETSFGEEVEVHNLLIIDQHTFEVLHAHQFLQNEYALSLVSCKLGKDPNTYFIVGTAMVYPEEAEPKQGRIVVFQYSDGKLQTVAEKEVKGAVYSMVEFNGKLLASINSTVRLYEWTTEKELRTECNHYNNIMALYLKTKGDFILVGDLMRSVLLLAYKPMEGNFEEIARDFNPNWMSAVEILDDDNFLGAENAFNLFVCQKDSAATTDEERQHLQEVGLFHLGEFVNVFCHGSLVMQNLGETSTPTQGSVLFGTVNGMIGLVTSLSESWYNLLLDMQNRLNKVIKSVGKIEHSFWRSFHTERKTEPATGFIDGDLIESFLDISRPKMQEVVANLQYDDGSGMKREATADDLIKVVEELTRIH
Excerpt: Promega developed a HEK293 cell line that constitutively expresses LgBiT protein and GSPT1_HiBiT fusion protein. When both proteins are present, the HiBiT portion of the fusion protein combines with LgBiT protein to form a functional luciferase enzyme. Endurazine, a cell permeable small molecule, is converted by cellular esterases into furimazine, which the luciferase enzyme uses as a substrate to generate luminescence. When GSPT1 is degraded, the HiBit is also degraded. This prevents formation of fully functional luciferase, leading to a loss in luminescence. GSPT1 degradation therefore correlates with a decrease in luminescence and can be measured continuously over time. The concentration of compound at which 50% GSPT1 degradation occurs (DC50) may be calculated using this system.
HEK293 LgBiTGSPT1 HiBiT CRISPR Knock-in cells were cultured in DMEM Media supplemented with 10% Heat-inactivated FBS, 1% Penicillin/Streptomycin, 200 μg/mL hygromycin and stored in a humidified incubator set at 37° C. and 5% CO2. 18-24 hours prior to compound treatment, cells were seeded at 1000 cells/well in a 384-well tissue culture-treated white plates in 25 μL media lacking selection for 18-24 hours. The plates were spun at 300 g for 30 seconds and stored in the incubator overnight. After 24 hours, compounds are titrated in DMSO and added to media supplemented with endurazine substrate. A 25 μL aliquot of 2× compound/endurazine in media is then added to the 384-well microplate with seeded cells. (Endurazine is used at a final concentration of 0.5×). The plate was spun at 300 g for 30 seconds and stored in the incubator. After 6 hours, the plate was read on a Perkin Elmer MultiMode Plate Reader Envision 2105 to measure luminescence signal. Data were plotted in Prism (Graphpad) and the concentration of compound at which 50% GSPT1 degradation occurs (DC50) was calculated.

[4] = target: T3, EGFR WT (amino acids 669-1011) (Homo sapiens, UniProt P00533); test: KdELECT binding assay, EGFR WT
T3 construct: purchased Eurofins Discovery (KdELECT); host or cells: bacteria (E. coli BL21-derived, T7 phage)
T3 sequence (P00533 669-1011): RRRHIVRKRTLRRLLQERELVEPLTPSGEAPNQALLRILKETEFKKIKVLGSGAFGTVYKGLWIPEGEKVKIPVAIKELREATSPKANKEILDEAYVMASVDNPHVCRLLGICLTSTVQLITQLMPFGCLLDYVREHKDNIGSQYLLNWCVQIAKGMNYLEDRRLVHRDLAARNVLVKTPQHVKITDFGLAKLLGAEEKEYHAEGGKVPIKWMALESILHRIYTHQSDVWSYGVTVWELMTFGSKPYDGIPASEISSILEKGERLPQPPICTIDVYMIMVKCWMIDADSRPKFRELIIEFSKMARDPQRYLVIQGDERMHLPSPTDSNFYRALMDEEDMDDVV
Protocol: (§3) Exemplary compounds were tested for ability to bind to EGFR WT (amino acids 669-1011, Accession Number NP_005219.2) or EGFR T790M, L858R (amino acids 669-1011 Accession Number NP_005219.2) expressed from bacteria or mammalian cells, respectively. Compounds were tested using the KdELECT assay at Eurofins Discovery.
(§4) Kinase-tagged T7 phage strains were prepared in an E. coli host derived from the BL21 strain. E. coli were grown to log-phase and infected with T7 phage and incubated with shaking at 32° C. until lysis. The lysates were centrifuged and filtered to remove cell debris. The remaining kinases were produced in HEK-293 cells and subsequently tagged with DNA for qPCR detection. Streptavidin-coated magnetic beads were treated with biotinylated small molecule ligands for 30 minutes at room temperature to generate affinity resins for kinase assays. The liganded beads were blocked with excess biotin and washed with blocking buffer (SeaBlock (Pierce), 1% BSA, 0.05% Tween 20, 1 mM DTT) to remove unbound ligand and to reduce non-specific binding. Binding reactions were assembled by combining kinases, liganded affinity beads, and test compounds in 1x binding buffer (20% SeaBlock, 0.17× PBS, 0.05% Tween 20, 6 mM DTT). Test compounds were prepared as 111× stocks in 100% DMSO. Kd values were determined using an 11-point 3-fold compound dilution series with three DMSO control points. All compounds for Kd measurements are distributed by acoustic transfer (non-contact dispensing) in 100% DMSO. The compounds were then diluted directly into the assays such that the final concentration of DMSO was 0.9%. All reactions performed in polypropylene 384-well plate. Each was a final volume of 0.02 mL. The assay plates were incubated at room temperature with shaking for 1 hour and the affinity beads were washed with wash buffer (1× PBS, 0.05% Tween 20). The beads were then re-suspended in elution buffer (1× PBS, 0.05% Tween 20, 0.5 μM nonbiotinylated affinity ligand) and incubated at room temperature with shaking for 30 minutes. The kinase concentration in the eluates was measured by qPCR.

[5] = target: T4, EGFR T790M, L858R (amino acids 669-1011) (Homo sapiens, UniProt P00533, L858R/T790M); test: KdELECT binding assay, EGFR T790M, L858R
T4 construct: purchased Eurofins Discovery (KdELECT); host or cells: mammalian cells (HEK-293)
T4 sequence (P00533 669-1011 T790M/L858R): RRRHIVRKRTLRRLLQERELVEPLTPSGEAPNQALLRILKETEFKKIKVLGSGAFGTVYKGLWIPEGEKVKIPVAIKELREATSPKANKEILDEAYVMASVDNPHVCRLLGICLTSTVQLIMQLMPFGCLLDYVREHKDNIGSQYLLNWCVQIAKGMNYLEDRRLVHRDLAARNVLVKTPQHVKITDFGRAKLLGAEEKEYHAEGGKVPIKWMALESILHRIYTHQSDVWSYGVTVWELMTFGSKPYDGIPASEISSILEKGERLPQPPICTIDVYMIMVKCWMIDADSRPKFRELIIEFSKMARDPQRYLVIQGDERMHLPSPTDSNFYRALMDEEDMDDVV
Protocol: as §3, §4

[6] = system: HEK293 cells (ATCC CRL-1573); test: Cellular growth inhibition assay, HEK293 cells (Example 16); type: cell-based; conditions: Homo sapiens, 72 hours, CellTiter-Glo 2.0
Protocol: as §1, §2

[7] = system: CCNK; test: Payload release assay (DC50 readout), CCNK degradation in the presence of recombinant target protein; type: cell-based; conditions: II-series and V-4 (CCNK readout inferred)
Protocol: Exemplary compounds were tested for ability to cause degradation of CCNK or GSPT1 in the presence of recombinant target protein.
HEK293 LgBiT/GSPT1 HiBiT CRISPR Knock-in cells (Promega) were cultured in DMEM (Gibco 11995), supplemented with 10% Heat-inactivated FBS (Gibco A38400-01) and 1% Penicillin/Streptomycin (Gibco 15140-122) and 200 Vg/ml Hygromycin B (Gibco 10-687-010) at 37° C. with 5% CO2 in a humidified tissue culture incubator. HEK293 LgBiT/CCNK HiBiT cells (in-house, described above) were cultured in DMEM (Gibco 11995), supplemented with 10% Heat-inactivated FBS (Gibco A38400-01) and 1% Penicillin/Streptomycin (Gibco 15140-122) 200 Vg/ml Hygromycin B (Gibco 10-687-010), and 1 Vg/ml Puromycin Dihydrochloride (Thermo A1113803) at 37° C. with 5% CO2 in a humidified tissue culture incubator. Cells were seeded (1000 cells/well for HEK293 LgBiT/GSPT1 HiBiT cells or 3000 cells/well for HEK293 LgBiT/CCNK HiBiT cells) 384-well, tissue culture-treated white plates (Perkin Elmer 6007680) in 10 μL media lacking selection for 18-24 hours. Plates were spun at 300 g for 30 seconds and stored in the incubator overnight. After 24 hours, a 5 μL aliquot of recombinant target protein (final concentration of either 5 μM KRAS amino acids 1-169, C51S, C80L, C118S, G12C or 3 μM EGFR amino acids 696-1022 or 3 μM EGFR amino acids 696-1022, T790M, L858R) was added to wells, followed immediately by a 5 μL aliquot of 4× compound-containing medium supplemented with Endurazine Substrate (Promega N2570) was added in each well, at a final top concentration of 10 μM test compound and 0.5× Endurazine, with 4-fold dilutions, using DMSO alone as a negative control. Plates were then spun at 300×g for 3 minutes again and cultured at 37° C. with 5% CO2. After 6 hours the plate was read on Envision MultiMode Plate Reader 2105 (Perkin Elmer) to measure luminescence signal. Data was normalized to DMSO treated cell wells. A four-parameter non-linear regression curve fit was applied to dose-response data in Prism to determine the half maximal growth inhibitory concentration (GI50) of each compound.

Row | EC50 [1] [µM] | GI50 [2] [µM] | DC50 [3] [µM] | Kd [4] [µM] | Kd [5] [µM] | DC50 ([7]; 0 μM recombinant EGFR T790M L858R, read-out: DC50 at 0 μM EGFR T790M L858R) [µM] | DC50 ([7]; 0 μM recombinant EGFR WT, read-out: DC50 at 0 μM EGFR WT) [µM] | Compound | GI50 [6] [µM]
1 | > 10 | > 10 | > 2.5 | > 2.5 | > 2.5 | – | – | C=C(CN(C(=O)NCc1ccc2c(c1)CN(C1CCC(=O)NC1=O)C2=O)c1ccc(C)c(Cl)c1)C(=O)N[C@@H]1CN(c2nc(Nc3cn(C)nc3OC)c3ncn(C)c3n2)C[C@H]1F (stereo partly drawn) [Compound I-41] | 1.5 to 10
2 | – | 1.5 to 10 | – | > 2.5 | > 2.5 | 5 to 10 | 5 to 10 | C=C(Cn1c(CNc2nc(N3CCN(C)CC3)nc3c(Br)cnn23)nc2c(F)c(F)ccc21)C(=O)N[C@@H]1CN(c2nc(Nc3cn(C)nc3OC)c3ncn(C)c3n2)C[C@H]1F [II-182] | 1.5 to 10
